The values below come from patent US20080213249A1, “Use of Retro-Aldol Reaction to Generate Reactive Vinyl Ketone for Attachment to Antibody Molecules by Michael Addition Reaction for Use in Immunostaining and Immunotargeting” (THE SCRIPPS RESEARCH INSITUTE, priority 2006, published 2008).

One experiment concerns antibody 38C2. Put plainly: Inactivation of the catalytic (aldolase) activity of antibody 38C2, fluorescence assay with methadol as substrate. The note with it: preliminary studies, unpublished results. It is filed as biochemical, mouse. The method, then: To assess the potential of 2a, 3a, 2c, and 3c as programming agents, these compounds were separately mixed with antibody 38C2 at a ratio of 2:1, and the mixtures were incubated at 37° C. for 2 h. A fluorescence assay, based on using methadol as the substrate, was used to assess time-dependent inactivation of the catalytic activity of the antibody (14). Inactivation of aldolase activity should be indicative of modification of the catalytic lysine residue and, thus, chemical programming of the antibody. In the absence of the programming agents, 38C2 rapidly catalyzed the retro-aldol reaction of methadol to produce the fluorescent product 6-methoxy-2-naphthaldehyde. […] (The cpAb 38C2 using targeting agents 2a or 3a were named as 38C2-2b and 38C2-3b, respectively, based on the fact that compounds 2b and 3b were the expected ligands that conjugated with 38C2. Similarly, the analogous chemically programmed 38C2 Fab (or cp38C2Fab) construct obtained from 3a was named as 38C2Fab-3b.) These observations clearly supported the assumption that vinyl ketones, 2b and 3b, produced in situ from their acetone adducts, reacted with the active site of the antibody and also reinforced the previously described construct formation from the analogous diketone compounds 2c and 3c.

Experiment [1] deals with HIV primary isolates and laboratory-adapted strains. The note with it: cited from earlier work.

`C=CC(C)=O` [methylvinyl ketone]: the “inactivation of the antibody” value with antibody 38C2 is “rapidly inactivated the antibody”.
With `C=C(C)[C@@H]1CC[C@]2(C(=O)NCCCCCCCC(=O)N[C@@H](CC(C)C)[C@H](O)CC(=O)O)CC[C@]3(C)[C@H](CC[C@@H]4[C@@]5(C)CC[C@H](O)C(C)(C)[C@@H]5CC[C@]43C)[C@@H]12` [IC9564], the anti-HIV activity result in experiment [1] is “can inhibit both HIV primary isolates and laboratory-adapted strains”.
